pEC50: −log10 of the molar value.

This experiment in a line: Inhibition of CHK1 in human HT29 cells assessed as abrogation of camptothecin-induced G2/M phase arrest.

Take `NC(=O)c1ccc(N[C@H]2CCCNC2)c2cc(-c3cccc(F)c3)[nH]c12`: the pEC50 – broadly, the EC50 on a negative log10 scale, so that one unit is a factor of ten – is 7.52. For `C[C@@H]1CC[C@H](Nc2ncc(C(N)=O)c3sc(-c4ccccc4)cc23)[C@H](C)N1`, the pEC50 is 8.00.

As to `NC(=O)c1cnc(N[C@H]2CCCNC2)c2cc(-c3ccsc3)sc12`, the pEC50 is 8.00. In the case of `CN1CCC[C@H](Nc2ncc(C(N)=O)c3sc(-c4ccccc4)cc23)C1`, the pEC50 is 6.06. Take `NC(=O)c1cnc(SC2CCCNC2)c2cc(-c3ccccc3)sc12` (stereo not given): the pEC50 was 6.68. The value for `NC(=O)c1cnc(N[C@H]2CNCC[C@@H]2O)c2cc(-c3ccccc3)sc12` was 6.39; that for `CN(c1ncc(C(N)=O)c2sc(-c3ccccc3)cc12)[C@H]1CCCNC1` was 6.08; that for `C[C@H]1NCCC[C@@H]1Nc1ncc(C(N)=O)c2sc(-c3ccccc3)cc12` was 8.10. As to `Cn1cc(-c2cc3c(N[C@H]4CCCNC4)ncc(C(N)=O)c3s2)cn1`, the pEC50 was 6.82. On to `NC(=O)c1ccc(N[C@H]2CCCNC2)c2cc(-c3ccc(Cl)cc3)[nH]c12`, for which the negative-log EC50 (pEC50) was 7.15. Take `NC(=O)c1cnc(N[C@H]2CCCNC2)c2cc(-n3ccnc3)sc12`: the negative logarithm of the EC50 (pEC50) is 5.00. As to `NC(=O)c1cnc(O[C@H]2CCCNC2)c2cc(-c3ccccc3)sc12`, the negative-log EC50 (pEC50) was 6.47. Take `NC(=O)c1cnc(N(CCO)[C@H]2CCCNC2)c2cc(-c3ccccc3)sc12`: the pEC50 was 5.43.

For `NC(=O)c1ccc(N[C@H]2CCCNC2)c2cc(-c3ccc(F)cc3)[nH]c12`, the negative-log EC50 (pEC50) is 7.40.

For `NC(=O)c1cnc(N[C@H]2CCCNC2)c2cc(-c3cnn(Cc4ccccc4)c3)sc12`, the negative logarithm of the EC50 (pEC50) is 7.22. With `NC(=O)c1cnc(N[C@H]2CCCNC2)c2cc(-c3cccs3)sc12`, the negative-log EC50 (pEC50) is 7.92. The value for `NC(=O)c1ccc(N[C@H]2CCCNC2)c2cc(-c3ccccc3)[nH]c12` was 7.28; that for `NC(=O)c1cnc(N[C@H]2CCCNC2)c2cc(-c3ccccc3)oc12` was 6.41.

On to `CCN(c1ncc(C(N)=O)c2sc(-c3ccccc3)cc12)[C@H]1CCCNC1`, for which the negative logarithm of the EC50 (pEC50) is 6.96.

Turning to `NC(=O)c1cnc(N[C@H]2CCCN[C@@H]2CCO)c2cc(-c3ccccc3)sc12`, the negative logarithm of the EC50 (pEC50) was 5.48. For `C[C@@H]1CC[C@H](Nc2ncc(C(N)=O)c3sc(-c4ccccc4)cc23)CN1`, the negative-log EC50 (pEC50) was 7.52.

Consider `NC(=O)c1cnc(N[C@H]2CCCNC2)c2cc(-c3ccccc3)sc12` [(S)-2-phenyl-4-(piperidin-3-ylamino)thieno[3,2-c]pyridine-7-carboxamide], for which the pEC50 is 7.59.

For the compound `NC(=O)c1cnc(N[C@H]2CCCNC2)c2cc(-c3cn[nH]c3)sc12`, the pEC50 is 5.64.

For the compound `NC(=O)c1cnc(N[C@H]2CCCNC2)c2cc(-c3cccc(F)c3)sc12`, the pEC50 was 7.62. On to `C[C@@H]1NCCC[C@@H]1Nc1ncc(C(N)=O)c2sc(-c3ccccc3)cc12`, for which the pEC50 is 7.30.

The values above are taken from BindingDB's records for doi:10.1021/acs.jmedchem.7b01490 (Astrazeneca, 2018).
